# Measurements reported in patent publication US20260007613A1, “LONG-ACTING LOW-TOXICITY NOVEL CATIONIC LIPID COMPOUNDS AND COMPOSITION THEREOF” (BEIJING YOUCAREKECHUANG PHARMACEUTICAL TECHNOLOGY CO., LTD., priority 2023, published 2026).
# Several values for one entry are separate records, joined by “and”; a condition that tells them apart may be missing. Equal entries are not always repeated.
# Assays:
# 293T cells [1] = test: Fluorescent detection of Fluc-mRNA (cell transfection efficiency of LNP formulations); format: cell-based; conditions: for Relative light unit (RLU): LNP formulation of Fluc-mRNA, 96-well plate, 24 hours; for Multiples (YK-305): RLU of YK-305 / RLU of the lipid of the line; for Multiples (YK-310): RLU of YK-310 / RLU of the lipid of the line; for Multiples (YK-312): RLU of YK-312 / RLU of the lipid of the line; for Multiples (YK-318): RLU of YK-318 / RLU of the lipid of the line; for Multiples (YK-318) / Multiples (YK-319): Tables 5, 7, 11; for Multiples (YK-319): RLU of YK-319 / RLU of the lipid of the line
# Experimental: (§1) Cell recovery and passage: 293T cells were recovered, cultured in a culture dish, and passaged to the required number of cells.
# (§2) Seeding plate: The cells in the culture dish were digested and counted. Cells were spread in a 96-well plate at 10,000 cells per well and in a 12-well plate at 150,000 cells per well. Cells were cultured overnight until the cells adhered to the wall.
# (§3) Cell recovery and passage: the method was the same as in Example 3.
# (§4) Seeding plate: the method was the same as in Example 3.
# An LNP formulation containing […] of Fluc-mRNA (the carrier components of the LNP formulation were cationic lipid, neutral lipid, structured lipid and polymer-conjugated lipid with a molar ratio of 49:10:39.5:1.5, wherein the cationic lipid was listed in Table 1) was added to the cell culture medium of a 96-well plate, and further incubated for 24 hours. The corresponding reagent was added according to the instructions of the […] Luciferase Assay Kit, and the fluorescence expression intensity of each well was detected by an IVIS fluorescence detection system. This test verified the transfection efficiencies of LNP formulations in cells, see Tables 4-7 for specific test results.
# [2] = Particle size and polydispersity index (PDI) of lipid nanoparticles by dynamic light scattering; format: physicochemical; conditions: LNP formulation prepared from the cationic lipid, 25° C.
# Experimental: The particle size and polydispersity index (PDI) were determined by dynamic light scattering using Malvern laser particle size analyzer.
# 10 μL of the liposome solution was weighed, diluted to 1 mL with RNase-free deionized water, and added to the sample pool. Each sample was measured in triplicate. The measurement conditions were: […] scattering angle, and 25° C.
# female BALB/C mice = test: Live imaging in mice: protein expression of Fluc-mRNA delivered by LNP formulations; format: in vivo; conditions: for average radiation intensity, times that of ALC-0315: comparator ALC-0315; for average radiation intensity, times that of HHMA: comparator HHMA; for average radiation intensity, times that of SM-102: comparator SM-102; for expression of mRNA in mice, times that of YK-302: comparator YK-302; for expression amount, times that of YK-321: comparator YK-321; for average radiation intensity, times that of compound 21: comparator compound 21; for average radiation intensity, times that of compound 23: comparator compound 23
# Experimental: In addition, the protein expression and duration of mRNA in mice delivered by the cationic lipid delivery carriers designed were also verified.
# The LNP formulation containing […] Fluc-mRNA was injected intramuscularly into female BALB/C mice aged 4 to 6 weeks old and weighed 17 to 19 g, and the mice were intraperitoneally injected with fluorescent imaging substrate at specific time points after administration (6 h, 24 h, 48 h and 7 d), where the mice were free to move for 5 minutes, and then the average radiation intensity (corresponding to fluorescence expression intensity) of the protein expression of the mRNA carried by the LNP in the mice was detected by the IVIS Spectrum small animal live imaging device.
# 293T cells [3] = test: Cell survival rate determination (CCK-8); format: cell-based; conditions: for Cell survival rate (%): LNP formulation of Fluc-mRNA, 24 hours, CCK-8
# Experimental: as §1, §2, §3, §4
# An LNP formulation containing […] of Fluc-mRNA (the carrier components of the LNP formulation were cationic lipid, neutral lipid, structured lipid and polymer-conjugated lipid with a molar ratio of 49:10:39.5:1.5, wherein the cationic lipid was listed in Table 1) and the formulation of Lipofectamine 3000 were added to the cell culture medium of a 96-well plate, and further cultivated for 24 hours. 10 μL of CCK-8 solution was then added to each well, and the culture plate was incubated in an incubator for 1 hour. The absorbance at 450 nm was measured by a microplate reader.
# Cell survival rate can represent the toxicity of cationic lipids to cells. The higher the cell survival rate, the lower the toxicity to cells.
# [4] = 6 h after intramuscular injection
# [5] = 24 h after intramuscular injection
# [6] = 48 h after intramuscular injection
# [7] = 7 d after intramuscular injection
smiles,measurement,setting,value
"CCCCCCCCC(CCCCCCCC)OC(=O)CCCCCN(CCCCCC(=O)OC(CCCCCCCC)CCCCCCCC)C[C@H](O)CN(CCO)CCO [YK-318, (S)-bis(heptadecan-9-yl)-6,6′-((3-(bis(2-hydroxyethyl)amino)-2-hydroxypropyl)azanediyl)dihexanoate]",Relative light unit (RLU),293T cells [1],11190068 RLU
same,Multiples (YK-305),293T cells [1],2.45
same,Multiples (YK-310),293T cells [1],2.31
same,Multiples (YK-312),293T cells [1],1.80
same,Multiples (YK-318),293T cells [1],1.00
same,Multiples (YK-319),293T cells [1],2.19
same,Ratio relative to SM-102,"293T cells [1]; RLU of the lipid / RLU of SM-102, times that of SM-102",6.98
same,"cell transfection efficiency, times that of ALC-0315",293T cells [1]; comparator ALC-0315,5.50 times
same,"cell transfection efficiency, times that of HHMA",293T cells [1]; comparator HHMA,5.58 times
same,"cell transfection efficiency, times that of Lipofectamine 3000",293T cells [1]; comparator Lipofectamine 3000,9.44 times
same,"cell transfection efficiency, times that of YK-009",293T cells [1]; comparator YK-009,2.19 times
same,"cell transfection efficiency, times that of YK-301",293T cells [1]; comparator YK-301,13.28 times
same,"cell transfection efficiency, times that of YK-302",293T cells [1]; comparator YK-302,402.84 times
same,"cell transfection efficiency, times that of YK-303",293T cells [1]; comparator YK-303,17.87 times
same,"cell transfection efficiency, times that of YK-304",293T cells [1]; comparator YK-304,~400 times and 540.95 times
same,"cell transfection efficiency, times that of YK-306",293T cells [1]; comparator YK-306,5.09 times
same,"cell transfection efficiency, times that of YK-307",293T cells [1]; comparator YK-307,2.46 times
same,"cell transfection efficiency, times that of YK-308",293T cells [1]; comparator YK-308,4.86 times
same,"cell transfection efficiency, times that of YK-309",293T cells [1]; comparator YK-309,~90 times and 89.26 times
same,"cell transfection efficiency, times that of YK-311",293T cells [1]; comparator YK-311,5.70 times
same,"cell transfection efficiency, times that of YK-313",293T cells [1]; comparator YK-313,12.91 times
same,"cell transfection efficiency, times that of YK-314",293T cells [1]; comparator YK-314,20.44 times
same,"cell transfection efficiency, times that of YK-315",293T cells [1]; comparator YK-315,7.05 times
same,"cell transfection efficiency, times that of YK-316",293T cells [1]; comparator YK-316,2.33 times
same,"cell transfection efficiency, times that of YK-317",293T cells [1]; comparator YK-317,3.10 times
same,"cell transfection efficiency, times that of YK-320",293T cells [1]; comparator YK-320,4.14 times
same,"cell transfection efficiency, times that of YK-321",293T cells [1]; comparator YK-321,7.97 times
same,"cell transfection efficiency, times that of compound 21",293T cells [1]; comparator compound 21,7.81 times
same,"cell transfection efficiency, times that of compound 23",293T cells [1]; comparator compound 23,8.25 times
same,PDI (%),[2],14.8%
same,Particle size (nm),[2],173 nm
same,"average radiation intensity, times that of ALC-0315",female BALB/C mice; 6 h,3.85 times
same,"average radiation intensity, times that of HHMA",female BALB/C mice; 6 h,5.11 times
same,"average radiation intensity, times that of SM-102",female BALB/C mice; 6 h,4.74 times
same,"expression of mRNA in mice, times that of YK-302",female BALB/C mice; 6 h,228.10 times
same,"expression amount, times that of YK-321",female BALB/C mice; 6 h,6.45 times
same,"average radiation intensity, times that of compound 21",female BALB/C mice; 6 h,5.45 times
same,"average radiation intensity, times that of compound 23",female BALB/C mice; 6 h,5.64 times
same,average radiation intensity,female BALB/C mice; [4],3325680
same,"average radiation intensity, times that of ALC-0315",female BALB/C mice; 24 h,5.08 times
same,"average radiation intensity, times that of HHMA",female BALB/C mice; 24 h,8.08 times
same,"average radiation intensity, times that of SM-102",female BALB/C mice; 24 h,8.04 times
same,"expression of mRNA in mice, times that of YK-302",female BALB/C mice; 24 h,244.83 times
same,"expression amount, times that of YK-321",female BALB/C mice; 24 h,9.57 times
same,"average radiation intensity, times that of compound 21",female BALB/C mice; 24 h,8.82 times
same,"average radiation intensity, times that of compound 23",female BALB/C mice; 24 h,9.27 times
same,average radiation intensity,female BALB/C mice; [5],968540
same,"average radiation intensity, times that of ALC-0315",female BALB/C mice; 48 h,8.96 times
same,"average radiation intensity, times that of HHMA",female BALB/C mice; 48 h,10.96 times
same,"average radiation intensity, times that of SM-102",female BALB/C mice; 48 h,10.96 times
same,"expression of mRNA in mice, times that of YK-302",female BALB/C mice; 48 h,348.11 times
same,"expression amount, times that of YK-321",female BALB/C mice; 48 h,9.76 times
same,"average radiation intensity, times that of compound 21",female BALB/C mice; 48 h,11.52 times
same,"average radiation intensity, times that of compound 23",female BALB/C mice; 48 h,10.77 times
same,average radiation intensity,female BALB/C mice; [6],356810
same,"average radiation intensity, times that of ALC-0315",female BALB/C mice; 7 d,7.19 times
same,"average radiation intensity, times that of HHMA",female BALB/C mice; 7 d,8.63 times
same,"average radiation intensity, times that of SM-102",female BALB/C mice; 7 d,7.65 times
same,"expression of mRNA in mice, times that of YK-302",female BALB/C mice; 7 d,131.92 times
same,"expression amount, times that of YK-321",female BALB/C mice; 7 d,7.69 times
same,"average radiation intensity, times that of compound 21",female BALB/C mice; 7 d,7.86 times
same,"average radiation intensity, times that of compound 23",female BALB/C mice; 7 d,8.12 times
same,average radiation intensity,female BALB/C mice; [7],50659
same,Cell survival rate (%),293T cells [3],75.56%
same,cell survival rate higher than ALC-0315,"293T cells [3]; difference of survival rates, comparator ALC-0315",24.53%
same,cell survival rate higher than HHMA,"293T cells [3]; difference of survival rates, comparator HHMA",9.09%
same,cell survival rate higher than Lipofectamine 3000,"293T cells [3]; difference of survival rates, comparator Lipofectamine 3000",50.55%
same,cell survival rate higher than SM-102,"293T cells [3]; difference of survival rates, comparator SM-102",6.11%
same,cell survival rate higher than YK-301,"293T cells [3]; difference of survival rates, comparator YK-301",22.60%
same,cell survival rate higher than YK-302,"293T cells [3]; difference of survival rates, comparator YK-302",59.13%
same,cell survival rate higher than YK-303,"293T cells [3]; difference of survival rates, comparator YK-303",12.24%
same,cell survival rate higher than YK-304,"293T cells [3]; difference of survival rates, comparator YK-304",41.40%
same,cell survival rate higher than YK-306,"293T cells [3]; difference of survival rates, comparator YK-306",33.37%
same,cell survival rate higher than YK-307,"293T cells [3]; difference of survival rates, comparator YK-307",14.42%
same,cell survival rate higher than YK-308,"293T cells [3]; difference of survival rates, comparator YK-308",4.57%
same,cell survival rate higher than YK-309,"293T cells [3]; difference of survival rates, comparator YK-309",43.95%
same,cell survival rate higher than YK-311,"293T cells [3]; difference of survival rates, comparator YK-311",5.50%
same,cell survival rate higher than YK-313,"293T cells [3]; difference of survival rates, comparator YK-313",6.63%
same,cell survival rate higher than YK-314,"293T cells [3]; difference of survival rates, comparator YK-314",7.68%
same,cell survival rate higher than YK-315,"293T cells [3]; difference of survival rates, comparator YK-315",4.28%
same,cell survival rate higher than YK-316,"293T cells [3]; difference of survival rates, comparator YK-316",5.03%
same,cell survival rate higher than YK-317,"293T cells [3]; difference of survival rates, comparator YK-317",16.38%
same,cell survival rate higher than YK-320,"293T cells [3]; difference of survival rates, comparator YK-320",4.49%
same,cell survival rate higher than YK-321,"293T cells [3]; difference of survival rates, comparator YK-321",3.22%
same,cell survival rate higher than compound 21,"293T cells [3]; difference of survival rates, comparator compound 21",5.35%
same,cell survival rate higher than compound 23,"293T cells [3]; difference of survival rates, comparator compound 23",4.06%
CCCCCCCCCCOC(=O)CCCN(CCCCCC(=O)OCCC(CCCCCC)CCCCCC)C[C@H](O)CN(C)CCO [YK-302],Relative light unit (RLU),293T cells [1],27778 RLU
same,Multiples (YK-305),293T cells [1],936.71
same,Multiples (YK-310),293T cells [1],928.69
same,Multiples (YK-312),293T cells [1],725.34
same,Multiples (YK-318),293T cells [1],402.84
same,Multiples (YK-319),293T cells [1],880.83
same,PDI (%),[2],13.4%
same,Particle size (nm),[2],186 nm
same,average radiation intensity,female BALB/C mice; [4],14580
same,average radiation intensity,female BALB/C mice; [5],8956
same,average radiation intensity,female BALB/C mice; [6],4025
same,average radiation intensity,female BALB/C mice; [7],884
same,Cell survival rate (%),293T cells [3],16.43%
